Data: US6255100A, “Cyclosporin fermentation process” (Novartis AG, priority 1990, dated 2001)
Where two headings read alike, the source gives them in different places. Non-standard residues stand in square brackets, D forms with d. Residues, ends and D or L forms follow the SMILES beside them. MeBmt = C/C=C/C[C@@H](C)[C@@H](O)[C@H](NC)C(=O)O; NMeL = CN[C@@H](CC(C)C)C(=O)O; NMeV = CN[C@H](C(=O)O)C(C)C; dNMeA = CN[C@H](C)C(=O)O

System: MT4 cells
Experiment: Cytotoxicity in MT4-cells (MTT)
Description: To evaluate the anti-HIV potential in additional cell lines and particularly in a monocytic cell line (U937), cellular toxicity of the test compound to these cell lines is first assessed. Jurkat and U937 cell suspensions are adjusted to 1×10^5 cells/ml and incubated in the presence of various concentrations of test compound. After 48 hours the amounts of cells per ml are compared by staining with MTT. Cytoxicity in MT4 cells may be measured in the same way.
The significance of these numbers and the appropriate methods are discussed supra.

| Compound | Cytotoxicity [µg/mL] | Cytotoxicity (MT4-cells, MTT staining) [µg/mL] |
| --- | --- | --- |
| CCCC[C@@H](C)[C@@H](O)[C@H]1C(=O)N[C@@H](CC)C(=O)N(C)CC(=O)N(C)[C@@H](CC(C)(C)O)C(=O)N[C@@H](C(C)C)C(=O)N(C)[C@@H](CC(C)C)C(=O)N[C@@H](C)C(=O)N[C@H](C)C(=O)N(C)[C@@H](CC(C)C)C(=O)N(C)[C@@H](CC(C)C)C(=O)N(C)[C@@H](C(C)C)C(=O)N1C [Compound a), [dihydro-MeBmt]^1-[γ-hydroxy-MeLeu]^4 -Ciclosporin] | 16.3 |  |
| C/C=C/C[C@@H](C)[C@@H](O)[C@H]1C(=O)N[C@@H](CC)C(=O)N(C)CC(=O)N(C)[C@@H](C(C)C)C(=O)N[C@@H](C(C)C)C(=O)N(C)[C@@H](CC(C)C)C(=O)N[C@@H](C)C(=O)N[C@H](C)C(=O)N(C)[C@@H](CC(C)C)C(=O)N(C)[C@@H](CC(C)C)C(=O)N(C)[C@@H](C(C)C)C(=O)N1C [Compound b), [MeVal]^4 -Ciclosporin] |  | 5.4 |
| C/C=C/C[C@@H](C)[C@@H](O)[C@H]1C(=O)N[C@@H](CC)C(=O)N(C)CC(=O)N(C)[C@@H]([C@@H](C)CC)C(=O)N[C@@H](C(C)C)C(=O)N(C)[C@@H](CC(C)C)C(=O)N[C@@H](C)C(=O)N[C@H](C)C(=O)N(C)[C@@H](CC(C)C)C(=O)N(C)[C@@H](CC(C)C)C(=O)N(C)[C@@H](C(C)C)C(=O)N1C [Compound c), [MeIle]^4 -Ciclosporin] |  | 4.5 |
| C/C=C/C[C@@H](C)[C@@H](O)[C@H]1C(=O)N[C@@H](CC)C(=O)N(C)CC(=O)N(C)[C@@H](CC(C)(C)O)C(=O)N[C@@H](C(C)C)C(=O)N(C)[C@@H](CC(C)C)C(=O)N[C@@H](C)C(=O)N[C@H](C)C(=O)N(C)[C@@H](CC(C)C)C(=O)N(C)[C@@H](CC(C)C)C(=O)N(C)[C@@H](C(C)C)C(=O)N1C [Compound e), [γ-hydroxy-MeLeu]^4 -Ciclosporin] | 15.5 |  |
| C/C=C/C[C@@H](C)[C@@H](O)[C@H]1C(=O)N[C@@H](CCC)C(=O)N(C)CC(=O)N(C)[C@@H](CC(C)(C)O)C(=O)N[C@@H](C(C)C)C(=O)N(C)[C@@H](CC(C)C)C(=O)N[C@@H](C)C(=O)N[C@H](C)C(=O)N(C)[C@@H](CC(C)C)C(=O)N(C)[C@@H](CC(C)C)C(=O)N(C)[C@@H](C(C)C)C(=O)N1C [Compound f), [Nva]^2-[γ-hydroxy-MeLeu]^4 -Ciclosporin] | 14.0 |  |
| C/C=C/C[C@@H](C)[C@@H](O)[C@H]1C(=O)N[C@@H](CC)C(=O)N(C)CC(=O)N(C)[C@@H](CC(C)C)C(=O)N(C)[C@@H](C(C)C)C(=O)N(C)[C@@H](CC(C)C)C(=O)N[C@@H](C)C(=O)N[C@H](C)C(=O)N(C)[C@@H](CC(C)C)C(=O)N(C)[C@@H](CC(C)C)C(=O)N(C)[C@@H](C(C)C)C(=O)N1C [Compound h), [MeVal]^5 -Ciclosporin] | 4.4 |  |
| C/C=C/C[C@@H](C)[C@@H](O)[C@H]1C(=O)N[C@@H]([C@@H](C)OC)C(=O)N(C)[C@H](C)C(=O)N(C)[C@@H](CC(C)C)C(=O)N(C)[C@@H](C(C)C)C(=O)N(C)[C@@H](CC(C)C)C(=O)N[C@@H](C)C(=O)N[C@H](C)C(=O)N(C)[C@@H](CC(C)C)C(=O)N(C)[C@@H](CC(C)C)C(=O)N(C)[C@@H](C(C)C)C(=O)N1C [Compound i), [MeOThr]^2-[(D)MeAla]^3-[MeVal]^5 -Ciclosporin] (cyclo(A[dA][NMeL][NMeL][NMeV][MeBmt]T(Me)[dNMeA][NMeL][NMeV][NMeL])) | > 10 |  |
| CC[C@@H]1NC(=O)[C@H]([C@H](O)[C@H](C)C/C=C/CO)N(C)C(=O)[C@H](C(C)C)N(C)C(=O)[C@H](CC(C)C)N(C)C(=O)[C@H](CC(C)C)N(C)C(=O)[C@@H](C)NC(=O)[C@H](C)NC(=O)[C@H](CC(C)C)N(C)C(=O)[C@H](C(C)C)NC(=O)[C@H](CC(C)C)N(C)C(=O)CN(C)C1=O [Compound j), [8'-hydroxy-MeBmt]^1 -Ciclosporin] | 10.6 |  |
| C/C=C/C[C@@H](C)[C@@H](O)[C@H]1C(=O)N[C@@H](CC)C(=O)N(C)CC(=O)N(C)[C@@H](CC(C)C)C(=O)N[C@@H](C(C)C)C(=O)N(C)[C@@H](C)C(=O)N[C@@H](C)C(=O)N[C@H](C)C(=O)N(C)[C@@H](CC(C)C)C(=O)N(C)[C@@H](CC(C)C)C(=O)N(C)[C@@H](C(C)C)C(=O)N1C [Compound k), [MeAla]^6 -Ciclosporin] | 5.2 |  |
| C/C=C/C[C@@H](C)[C@@H](O)[C@H]1C(=O)N[C@@H](CC)C(=O)N(C)CC(=O)N(C)[C@@H](CC(C)C)C(=O)N[C@@H](C(C)C)C(=O)N(C)[C@@H](CC(C)C)C(=O)N[C@@H](C)C(=O)N[C@H](C)C(=O)N(C)[C@@H](CC(C)(C)O)C(=O)N(C)[C@@H](CC(C)C)C(=O)N(C)[C@@H](C(C)C)C(=O)N1C [l), [γ-hydroxy-MeLeu]^9 -Ciclosporin] | > 10 |  |
